System: target antigen-expressing cell line
Assay: Jurkat NFAT-GFP assay, coculture with target cell lines expressing the respective target antigen (summary Table 10A)
Type: cell-based, human
Design: key: The signs +/−, +, 2+ etc. after the name of the cell lines indicate the relative degree of positivity on the Jurkat-NFAT-GFP assay as measured by the % GFP positive cells; +: relative degree of positivity on the Jurkat-NFAT-GFP assay as measured by the % GFP positive cells; 2+: relative degree of positivity on the Jurkat-NFAT-GFP assay as measured by the % GFP positive cells
Conditions: relative % GFP positive cells; for NFAT-GFP ASSAY Positive Cell lines: NALM6: SIR-expressing Jurkat-NFAT-GFP cells cocultured with NALM6
Protocol: (B) Induction of NFAT promoter driven GFP expression. The control vector- and SIR-expressing Jurkat-NFAT-GFP cocultured for 4-24 hours with the target antigen-expressing cell line (described above) and their ability to bind to the target antigen is assayed by measuring induction of GFP expression using Flow Cytometry. Cellular supernatant is collected and assayed for the induction of cytokines (e.g., IL2).
Jurkat NFAT-GFP Assay For Synthetic Immune Receptors. The Jurkat-NFAT-GFP cells are engineered in such a way that the IL-2 promoter, which carries NFAT binding sites, is cloned upstream of the GFP gene. These cells have been used to study signaling via TCR and CAR. The different SIRs were stably expressed in Jurkat NFAT-GFP cells by lentiviral mediated gene transfer, followed by selection with puromycin. The SIR-expressing Jurkat-NFAT-GFP cells were cocultured with the target cells at E:T ratio of approximately 1:2 for approximately 4 hours to 18 hours. When the interaction between SIRs and their target antigen results in activation of the NFAT pathway, GFP expression is induced.
Induction of GFP expression by coculturing of Jurkat-NFAT-GFP cells expressing different SIR constructs and the different target cells was studied essentially as described previously (Wu, Roybal, Puchner, Onuffer, & Lim, 2015). GFP expression was monitored by FACS analysis. A few representative examples of this assay are shown in the FIG. 13A-B. In panel A, control Jurkat-NFAT-GFP cells or those expressing SIRs targeting CD19 (clone ID 051716-I08), MPL (Clone ID: 040716-A07) and BCMA (Clone ID: 011116-A07) were incubated with RAJI (top), HEL (middle) or U266 (bottom) cells, respectively. […] In panel B, Jurkat cells expressing SIR targeting CDH6 (Clone ID: 051716-J05), CD276 (Clone ID: 050516-Q06) and Her2/neu (Clone ID: 050516-I03) were incubated with SKOV3 (top) and […] (middle and bottom) cells, respectively. […] The Jurkat-NFAT-GFP cells were engineered to express different SIRs targeting other antigens and the experiment repeated upon coculture with the target cells expressing their respective target antigen. The Jurkat-NFAT-GFP (parental) cells were used as control. The names of different SIRs, their SEQ ID NOs, component antigen binding domains and TCR chains can be determined by reference to Tables 7A-7H. A SIR is considered positive in the assay in case the SIR expressing Jurkat-NFAT-GFP cells show greater % GFP positive cells when cultured with the target cell line as compared to parental Jurkat-NFAT-GFP cells. […] The signs +/−, +, 2+ etc. after the name of the cell lines indicate the relative degree of positivity on the Jurkat-NFAT-GFP assay as measured by the % GFP positive cells after culture of the SIR expressing Jurkat-NFAT-GFP cells with that cell line. […] In addition, great diversity of response against the same target cell line is observed with Jurkat cells expressing SIRs containing different antigen binding domains targeting the same antigen (e.g., SIRs having antigen binding domains derived form different CD19 antibodies) even when the SIRs share the same TCR chains and linkers. Finally, Jurkat cells expressing SIRs targeting different antigens (e.g. CD19 vs CD20) show a diversitiy of response when exposed to the same target cell line. Thus, a diverse immune response can be generated against a single target cell by combining SIRs with different TCR chains, linkers, antigen binding domains and target specificity. Table 10A also summarizes the results of GLuc based T cell cytotoxicity assay observed with different SIRs when exposed to their target cell lines. […]

Substance	NFAT-GFP ASSAY Positive Cell lines: NALM6	NFAT-GFP ASSAY Positive Cell lines: RAJI (SIR-expressing Jurkat-NFAT-GFP cells cocultured with RAJI)
CD8SP-CD19Bu12-vL-V5-[TCRb-S57C-opt1]-F-P2A-SP-CD19Bu12-vH-Myc-[TCRa-T48C-opt1]-F-F2A-PAC [SEQ ID NO:1021]	(2+)	–
CD8SP-FMC63-vL-V5-[TCRb-S57C-opt1]-F-P2A-SP-FMC63-vH-Myc-[TCRa-T48C-opt1]-F-F2A-PAC [SEQ ID NO:900]	RAJI(2+), NALM6(2+)	RAJI(2+), NALM6(2+)
